The results in this text go back to patent US20160122330A1, “PIPERIDINYL BENZOIMIDAZOLE DERIVATIVES AS MPGE-1 INHIBITORS” (NOVASAID AB, priority 2013, published 2016).

The target in experiment [1] is T1, recombinant membrane-bound human mPGEs-1 (Homo sapiens, UniProt O14684).
T1 sequence (O14684 1-152): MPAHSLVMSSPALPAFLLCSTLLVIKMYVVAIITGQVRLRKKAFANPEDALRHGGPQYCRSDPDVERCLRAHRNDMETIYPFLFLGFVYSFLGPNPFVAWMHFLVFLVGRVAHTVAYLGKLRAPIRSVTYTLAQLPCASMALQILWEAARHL
The experiment is described as follows: Thiobarbituric acid assay (TBA-MDA assay), inhibition of human mPGEs-1. Format: biochemical. The following applies: arithmetic mean values. An excerpt: Malondialdehyde is a product of lipid peroxidation and reacts with thiobarbituric acid forming a red product that absorbs light at 535 nm (W. G. Niehaus, Jr and B. Samuelsson, Eur. J. Biochem 6, 126 (1968)) and is also fluorescent. The extinction coefficient of the TBA-MDA conjugate is 1.56×10^5 M^−1 cm^−1 (E. D. Wills. Biochem. J. 113, 315 (1969). The method used for detection of inhibition of mPGEs-1 is based on the detection of the amount of remaining PGH2. This method was described more than 20 years ago by Basevich et al (Bioorg. Khim. 1983, 9(5), 658-665).
The assay used was a modified variant and used citric acid instead of the TCA-TBA-HCl reagent described in the original assay. In this assay, recombinant membrane-bound human mPGEs-1 was incubated with PGH2. The reaction was stopped by adding citric acid to a final pH 3 and a large excess of iron(II) chloride (20 mM) to convert any remaining PGH2 into MDA and 12-HHT. TBA reagent was finally added (0.67%) and the samples were heated at 80° C. for 30 min. The fluorescence of the conjugate was measured at 485/545 nm.
The product of mPGEs-1 (PGE2) was not measured directly in this assay, but rather the remaining substrate (PGH2) indirectly by adding FeCl2 that converts PGH2 into MDA and 12-HHT. As a positive control, a known mPGEs-1 inhibitor, MK-886, was used and the inhibition afforded by the new inhibitors was compared with that obtained from MK-886.

Experiment [2] relates to A549 lung carcinoma cells. The experiment is described as follows: A549 cell-assay, cellular PGE2 synthesis. Format: cell-based. The following applies: Homo sapiens, PGE2 content by EIA, TNFalfa/IL-1beta stimulated cells, 10 μM arachidonic acid, arithmetic mean values. As to the method:
Prostaglandin detection kits were purchased from Cayman Chemicals and used according to the instruction of the manufacturer.
A549 lung carcinoma cells, seeded at a density of 10,000 cells/well, were grown in 96 well tissue culture plates. TNFalfa (5 ng/mL) and IL-1beta (5 ng/mL) were added and the cells were incubated for 16 hours. Cells were washed in PBS and test compounds at the appropriate concentration in HBSS/0.1% BSA were added. After 30 minutes of incubation with test compounds, 10 μM arachidonic acid was added and cells were further incubated for 30 minutes. Supernatant was collected and analyzed for PGE2 content by EIA according to manufacturer's instructions.

Broadly, the IC50 is the concentration at which inhibition is half-maximal. For `Cc1cc2c(cc1Cl)nc(N1CCC(C(=O)N[C@@H]3CCOC3)CC1)n2-c1cccc(C(F)(F)F)n1` [Example 1, (R)-1-(5-chloro-6-methyl-1-(6-(trifluoromethyl)pyridin-2-yl)-111-benzo[d]imidazol-2-yl)-N-(tetrahydrofuran-3-yl)piperidine-4-carboxamide], the concentration for half-maximal inhibition (IC50) stood at 18 nM in experiment [1] and 28 nM in experiment [2].
The corresponding values for `Cc1cc2nc(N3CCC(C(=O)N[C@@H]4CCOC4)CC3)n(-c3cccc(C(F)(F)F)n3)c2cc1Cl` [Example 2, (R)-1-(6-chloro-5-methyl-1-(6-(trifluoromethyl)pyridin-2-yl)-1H-benzoimidazol-2-yl)-N-(tetrahydrofuran-3-yl)piperidine-4-carboxamide] are 24 nM and 52 nM.
For `Cc1cc2c(cc1Cl)nc(N1CCC(C(=O)N[C@@H]3CCOC3)CC1)n2-c1ccc(C(F)(F)F)cn1` [Example 3, (R)-1-(5-chloro-6-methyl-1-(5-(trifluoromethyl)pyridin-2-yl)-1H-benzo[d]imidazol-2-yl)-N-(tetrahydrofuran-3-yl)-piperidine-4-carboxamide], in that order: 58 nM and 85 nM.
`Cc1cc2nc(N3CCC(C(=O)N[C@@H]4CCOC4)CC3)n(-c3ccc(C(F)(F)F)cn3)c2cc1Cl` [Example 4, (R)-1-(6-chloro-5-methyl-1-(5-(trifluoromethyl)pyridin-2-yl)-1H-benzo[d]imidazol-2-yl)-N-(tetrahydrofuran-3-yl)-piperidine-4-carboxamide]: the IC50 in experiment [1] came out at 46 nM; in experiment [2], 122 nM.
